The values below come from PMC11969438 (Inorganic Chemistry Frontiers, 2025).

In one data set the target is T1, albumin (Bos taurus, UniProt P02769).
T1 construct: Serum proteins have a retention span of ∼2–4 min as part of the high-molecular weight fraction with albumin at ∼4 min; tissue Sigma-Aldrich; host or cells: fetal calf serum (whole serum, buffered with 150 mM phosphate buffer pH 7.4)
The data set is described as follows: Albumin binding in fetal calf serum, SEC-ICP-MS. It is filed as in vitro ADME. To be noted: 50 μM in FCS. On the procedure:
FCS was purchased from Sigma-Aldrich and buffered with 150 mM PB pH 7.4 to guarantee a stable pH. The platinum(IV) complexes were dissolved in 150 mM PB (pH 7.4) at a concentration of 5 mM and diluted 1 : 100 in the buffered serum to obtain a final concentration of 50 μM. The samples were then incubated in an autosampler at 37 °C and analyzed for 24 h. Between each sample, a pure water blank was measured. For SEC-ICP-MS measurements an Agilent 1260 Infinity system coupled to an Agilent 7800 ICP-MS equipped with a dynamic reaction cell was used. Oxygen (purity 5.5, Messer Austria GmbH, Gumpoldskirchen, Austria) was used as a reaction gas.

A further data set concerns CT-26 tumors. The data set is described as follows: Anticancer efficacy in vivo, syngeneic colorectal carcinoma. The arrangement: species or system BALB/c mice. To be noted: i.v. twice a week for two weeks, equimolar to 9 mg kg^−1 oxaliplatin. As to the method:
(§1) Tumor size was determined daily via manual caliper measurement. […] Animals were euthanized via cervical dislocation.

The nature of data set [1]: Cytokine and chemokine levels in plasma of treated animals, Luminex. The data set is classed as in vivo, CT-26-bearing BALB/c mice. To be noted: 24 h after second dose. As to the method:
Next, the ProcartaPlex (96-well) multiplex assay panel was performed according to the manufacturer's recommendations. In brief, the capture bead mix was incubated with test samples (undiluted SN or mouse plasma) or standard mix overnight. The SN of three independent experiments or the plasma of four animals per treatment group was loaded onto the multiplex assay plate. Next, biotinylated detection antibody mix and Streptavidin-PE were added to the plate. Following the recommended washing steps, the samples were incubated in a reading buffer and were measured using a Luminex xMAP platform (Bio-Plex MAGPIX Multiplex Reader; Bio-Rad Laboratories) and analyzed using xPONENT software.
as §1

Data set [2] in a line: Platinum distribution study in vivo by ICP-MS. The arrangement: species or system CT-26 tumor-bearing BALB/c mice. To be noted: i.v., 24 h after second dose. On the procedure: as §1
The generation and treatment of tumor-bearing mice are outlined in the section “In vivo syngraft experiments” described above. Mouse tissues were processed as described previously.[13] Briefly, serum was isolated from peripheral blood by centrifugation (900g, 10 min, 4 °C, twice). Tissues were digested in 20% nitric acid and hydrogen peroxide using an open-vessel graphite digestion system. The platinum concentration was determined by ICP-MS analysis; for details see “Intracellular platinum accumulation in vitro by ICP-MS”.

The nature of data set [3]: Hematological analysis after long-term treatment. As to conditions: 72 h after the fourth dose. As to the method:
(§2) Mice were kept in groups of four per cage with sterilized paper-based environmental enrichment and food and water ad libitum, under pathogen-free conditions and a controlled environment with a 12 h light–dark cycle. Syngeneic models of colorectal carcinoma were generated via subcutaneous injection of CT-26 cells (0.5 × 10^6 cells in 50 μL of serum-free RPMI-1640 medium) into the right flank of 8–12 weeks old BALB/c mice. […] All animals were euthanized 24 h after the second dose. […] To determine the anticancer efficacy of the investigated compounds, treatment started 4 d after tumor implantation, when all tumors were measurable (>25 mm^3) using a twice-weekly treatment scheme for two weeks. Tumor size was determined daily via manual caliper measurement. The tumor volume was calculated as tumor volume = (length × diameter × diameter)/2. The overall condition, shape, and activity of the animals were assessed daily. Peripheral blood was collected from the submandibular vein in K3E K3EDTA tubes (Greiner Bio-One; Kremsmünster, AUT) on ice and was analyzed for hematological parameters (red blood cells (RBCs), hemoglobin (HGB), hematocrit (HCT), red cell distribution width (RDW), mean corpuscular volume (MCV), white blood cells (WBCs), lymphocytes (LYM), monocytes (MO), granulocytes (GRA), and platelets (PLT) using a Vet ABC hematology analyzer (scil Animal Care GmbH, Viernheim, Germany). EDTA-blood was centrifuged (900g, 10 min) twice and the supernatant (EDTA-plasma) was stored at −20 °C for subsequent cytokine/chemokine analysis using a Luminex detection platform. All animal experiments were performed with humane endpoints based on Federation of European Laboratory Animal Science Associations guidelines and according to the regulations of the Ethics Committee for the Care and Use of Laboratory Animals at the Medical University Vienna (proposal number BMBWF 2023–0.122.324). Animals were euthanized upon reaching a tumor volume of >1500 mm^3, a loss in body weight (>20%), tumor ulceration or other indications of deteriorated health. Animals were euthanized via cervical dislocation.

The nature of data set [4]: Hematological analysis 24 h after the second dose. To be noted: two i.v. doses equimolar to 9 mg kg^−1 oxaliplatin, 24 h after second dose. As to the method:
as §2

In data set [5] the test system is immune cell populations in tumor and spleen. The data set is described as follows: Immune activation and infiltration by flow cytometry. The data set is classed as in vivo, CT-26-bearing BALB/c mice. As to conditions: 24 h after second dose. As to the method: as §1
The generation and treatment of tumor-bearing mice are outlined in the section “In vivo syngraft experiments” above. Samples were kept on ice during the whole procedure. Tissues were prepared as described previously.[55] In brief, tumor and spleen tissues were collected and mechanically dissociated in DPBS buffer containing Ca^2+/Mg^2+ and FCS (5%). Tumor samples were digested using collagenase VIII (1 mg mL^−1) in a DPBS buffer (without Ca^2+/Mg^2+) supplemented with DNAse I (1 mg mL^−1) for 15 min at 37 °C under constant shaking. Samples were filtered using 70 μm cell strainers in a DPBS buffer (without Ca^2+/Mg^2+) containing FCS (5%), EDTA (5 mM) and DNase I (20 μg mL^−1). Subsequent washing steps were performed in DPBS buffer (without Ca^2+/Mg^2+) containing FCS (5%), EDTA (5 mM) and DNase I (20 μg mL^−1), unless indicated otherwise. Red blood cells were removed by short incubation with ACK buffer. For blocking, samples were incubated with the Ultra-LEAF purified anti-mouse CD16/CD32 antibody (clone: 93; #101330; RRID:AB_2783037; dilution: 1 : 1000) (Biolegend, San Diego, CA, USA) in the BD Horizon Brilliant Stain Buffer (#563794; BD Biosciences) for 10 min. Next, the samples were incubated with an antibody mixture in the BD Horizon Brilliant Stain Buffer for 30 min. Fluorescent dye-labeled antibodies targeting murine CD3 (17A2; #100203; RRID:AB_312661; 1 : 50), CD8a (53-6.7; #100738; RRID:AB_11204079; 1 : 160), CD19 (6D5; #115528; RRID:AB_493735; 1 : 400), CD49b (DX5; #108924; RRID:AB_2565271; 1 : 229), CD11b (M1/70; #101228; RRID:AB_893232; 1 : 80), and CD69 (H1.2F3; # 104512; RRID:AB_493564; 1 : 40) were purchased from BioLegend. The antibody targeting murine CD4 (RM4-5; # 85-0042-U100; 1 : 80) and the viability dye Ghost Dye Red 780 (#13-0865-T100; 1 : 1000) were purchased from Tonbobio (San Diego, CA, USA). The antibody targeting CD45 (30-F11; #363-0451-82; RRID:AB_2925264; 1 : 80) was purchased from Life Tech (Invitrogen). For intracellular staining of granzyme B (GzmB) (QA16A02; #372208; RRID:AB_2687032; 1 : 20) and FoxP3 (MF-14; #320014; RRID:AB_439750; 1 : 100) the True-Nuclear Transcription Factor Buffer Set (Biolegend; #424401) was used according to the manufacturer's recommendations. In brief, samples were incubated with Perm Fix Solution for 60 min at RT. Next, the samples were stained with antibodies targeting GzmB and FoxP3 (diluted in Perm buffer) for 30 min at RT. […] Next day, the samples were analyzed using a Cytek Aurora 5L (Cytek Biosciences, CA, USA) spectral flow cytometer. Data were analyzed using SpectroFlo (v3.2.1) (Cytek Biosciences) and FlowJo (v10.8.1) (FlowJo LLC, Ashland, OR, USA) software.
Background: Flow cytometry measures light scatter and fluorescence of single cells or particles in a stream.

[6] abbreviates: two doses, vs Ox-MSA-PEG-Ca or oxaliplatin.

“Also recorded” adds a separate entry of the source.

T1 sequence (P02769 25-607): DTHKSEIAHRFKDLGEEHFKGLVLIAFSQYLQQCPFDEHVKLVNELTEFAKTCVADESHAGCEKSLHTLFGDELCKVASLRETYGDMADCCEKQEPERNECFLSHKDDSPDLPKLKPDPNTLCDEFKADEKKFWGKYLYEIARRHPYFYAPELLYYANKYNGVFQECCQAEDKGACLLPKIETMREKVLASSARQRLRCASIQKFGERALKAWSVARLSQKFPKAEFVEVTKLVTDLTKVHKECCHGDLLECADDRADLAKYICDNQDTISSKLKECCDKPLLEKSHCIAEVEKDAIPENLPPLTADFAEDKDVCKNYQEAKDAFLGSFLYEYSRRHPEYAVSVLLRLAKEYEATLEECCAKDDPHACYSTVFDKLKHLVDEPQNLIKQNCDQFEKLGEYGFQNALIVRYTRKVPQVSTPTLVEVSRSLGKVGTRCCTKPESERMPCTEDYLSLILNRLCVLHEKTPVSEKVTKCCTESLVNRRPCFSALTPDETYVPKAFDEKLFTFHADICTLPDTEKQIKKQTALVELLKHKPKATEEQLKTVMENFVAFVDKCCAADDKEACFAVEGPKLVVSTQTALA

On to `COc1cc2cc(C(=O)CCC(=O)[O][Pt-2]34([O]C(=O)NCCOCCOCCOCCOCCN5C(=O)C=CC5=O)([NH2+][C@@H]5CCCC[C@H]5[NH2+]3)[O]C(=O)C(=O)[O]4)sc2cc1OC` [Ox-MSA-Mal, (OC-6-34)-[(1R,2R)-1,2-cyclohexanediamino]-oxalato-[4-(5,6-dimethoxybenzo[b]thiophen-2-yl)-4-oxobutylcarboxylato]-[(14-(2,5-dioxo-2,5-dihydro-1H-pyrrol-1-yl)-3,6,9,12-tetraoxatetradecyl)carbamato]platinum(IV)], for which, at albumin (150 mM PB pH 7.4, 37 °C, 0 h time point), the “platinum bound to albumin” value is “approximately 99%”. In addition, the “stability of albumin drug conjugate” value at albumin (37 °C, no release of platinum from the protein) is “stable over 24 h”. The tumor growth entry with CT-26 tumors is listed as “distinctly stronger anticancer efficacy; also recorded: significantly inhibited colorectal tumor growth”. In addition, the “plasma chemokines CXCL9 and CXCL11” value in data set [1] is listed as “most strongly activated”. Besides, in data set [2] (two doses equimolar to 9 mg kg^−1 oxaliplatin), the “liver platinum level relative to tumor” value is given as 1.4 fold. Moreover, in data set [2] (setting [6]), the “platinum accumulation in peripheral blood cells” value was “clearly lowered accumulation”; the “platinum levels in serum and tumor” value is given as “distinctly elevated platinum levels”. Further, in data set [3], the RBC toxicity entry is “strongly reduced” and the “platelet counts (PLT) / thrombocytopenia” value was “not evident”. For the same molecule, the “absolute counts of white blood cells and subpopulations” value in data set [3] (i.v. twice a week for two weeks) was “induced an increase”. For the same molecule, the anemia entry in data set [4] is listed as “not”. For the same molecule, the “FoxP3+ CD4+ T cell compartment in the spleen” value in data set [5] is “selectively elevated”.
